According to patent publication US10870647B2, “Imidazopyridine derivative, method for preparing same, and pharmaceutical composition containing same as active ingredient for preventing or treating cancer” (DAEGU-GYEONGBUK MEDICAL INNOVATION FOUNDATION, priority 2016, dated 2020):
Like-named read-outs stand apart in the source and are kept apart here.

Columns and labels:
Test in all cases: Kinase selectivity, scanMAX Kinase assay panel (DiscoverX), % control at 1 uM
Format in all cases: binding
[1] = target: T1, scanMAX Kinase assay panel (Homo sapiens, UniProt O95835); conditions: LATS1; 1 uM; read-out: Percent Control (%)
T1 construct: purchased DiscoverX
T1 sequence (O95835 1-1130): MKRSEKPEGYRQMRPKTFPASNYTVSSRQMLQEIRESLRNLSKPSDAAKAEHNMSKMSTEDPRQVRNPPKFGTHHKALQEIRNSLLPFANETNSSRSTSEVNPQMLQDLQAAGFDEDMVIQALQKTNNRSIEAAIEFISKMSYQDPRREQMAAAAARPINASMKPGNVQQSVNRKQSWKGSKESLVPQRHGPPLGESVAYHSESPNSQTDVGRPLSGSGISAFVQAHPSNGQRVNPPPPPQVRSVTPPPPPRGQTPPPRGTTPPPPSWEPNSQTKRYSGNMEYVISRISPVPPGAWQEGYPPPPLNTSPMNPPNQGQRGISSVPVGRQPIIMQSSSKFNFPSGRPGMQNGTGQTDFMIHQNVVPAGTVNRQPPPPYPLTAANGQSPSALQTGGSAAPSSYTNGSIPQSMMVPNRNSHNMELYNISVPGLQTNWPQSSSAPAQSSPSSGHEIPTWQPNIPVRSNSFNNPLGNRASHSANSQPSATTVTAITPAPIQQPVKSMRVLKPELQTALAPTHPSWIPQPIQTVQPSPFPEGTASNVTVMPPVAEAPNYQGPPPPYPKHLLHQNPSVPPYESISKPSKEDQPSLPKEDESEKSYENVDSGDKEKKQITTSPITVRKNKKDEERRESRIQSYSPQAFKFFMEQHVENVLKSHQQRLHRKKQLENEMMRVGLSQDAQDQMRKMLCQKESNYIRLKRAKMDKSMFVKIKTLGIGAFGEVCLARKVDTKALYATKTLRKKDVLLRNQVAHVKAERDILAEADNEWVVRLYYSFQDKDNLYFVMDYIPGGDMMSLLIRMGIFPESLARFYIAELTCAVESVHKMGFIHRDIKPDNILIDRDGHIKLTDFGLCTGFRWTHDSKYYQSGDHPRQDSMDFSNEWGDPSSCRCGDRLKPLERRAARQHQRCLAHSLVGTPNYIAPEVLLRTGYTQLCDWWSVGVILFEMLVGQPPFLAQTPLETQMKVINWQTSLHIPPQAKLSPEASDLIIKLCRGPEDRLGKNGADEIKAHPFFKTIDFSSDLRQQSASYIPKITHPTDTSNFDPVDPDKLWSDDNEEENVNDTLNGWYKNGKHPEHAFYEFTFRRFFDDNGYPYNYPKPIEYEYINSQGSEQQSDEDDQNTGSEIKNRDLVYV
Procedure, shortened: (§1)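 A single concentration of 1 uM, in DMSO, is applied across the kinase panel. Activity against an individual enzyme is assigned where % control is less than 35.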

[2] = target: T2, scanMAX Kinase assay panel (Homo sapiens, UniProt P31749); conditions: AKT1; 1 uM; read-out: Percent Control (%)
T2 construct: purchased DiscoverX
T2 sequence (P31749 whole entry): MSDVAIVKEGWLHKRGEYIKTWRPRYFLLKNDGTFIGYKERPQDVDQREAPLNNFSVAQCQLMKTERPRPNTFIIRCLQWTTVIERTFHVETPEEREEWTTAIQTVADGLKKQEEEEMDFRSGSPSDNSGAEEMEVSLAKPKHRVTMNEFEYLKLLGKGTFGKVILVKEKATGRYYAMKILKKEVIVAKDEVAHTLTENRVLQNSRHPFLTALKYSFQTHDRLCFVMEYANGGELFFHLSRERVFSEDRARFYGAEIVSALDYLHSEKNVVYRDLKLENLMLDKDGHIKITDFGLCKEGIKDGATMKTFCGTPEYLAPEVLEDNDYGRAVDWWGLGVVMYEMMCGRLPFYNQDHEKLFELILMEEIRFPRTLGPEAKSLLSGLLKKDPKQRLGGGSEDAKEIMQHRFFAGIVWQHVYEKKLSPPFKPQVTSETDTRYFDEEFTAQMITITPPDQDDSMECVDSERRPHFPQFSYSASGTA
Procedure, shortened: as §1

[3] = target: T3, scanMAX Kinase assay panel (Homo sapiens, UniProt P07949, V804M); conditions: RET (V804M); 1 uM; read-out: Percent Control (%)
T3 construct: purchased DiscoverX
T3 sequence (P07949 29-1114 V804M): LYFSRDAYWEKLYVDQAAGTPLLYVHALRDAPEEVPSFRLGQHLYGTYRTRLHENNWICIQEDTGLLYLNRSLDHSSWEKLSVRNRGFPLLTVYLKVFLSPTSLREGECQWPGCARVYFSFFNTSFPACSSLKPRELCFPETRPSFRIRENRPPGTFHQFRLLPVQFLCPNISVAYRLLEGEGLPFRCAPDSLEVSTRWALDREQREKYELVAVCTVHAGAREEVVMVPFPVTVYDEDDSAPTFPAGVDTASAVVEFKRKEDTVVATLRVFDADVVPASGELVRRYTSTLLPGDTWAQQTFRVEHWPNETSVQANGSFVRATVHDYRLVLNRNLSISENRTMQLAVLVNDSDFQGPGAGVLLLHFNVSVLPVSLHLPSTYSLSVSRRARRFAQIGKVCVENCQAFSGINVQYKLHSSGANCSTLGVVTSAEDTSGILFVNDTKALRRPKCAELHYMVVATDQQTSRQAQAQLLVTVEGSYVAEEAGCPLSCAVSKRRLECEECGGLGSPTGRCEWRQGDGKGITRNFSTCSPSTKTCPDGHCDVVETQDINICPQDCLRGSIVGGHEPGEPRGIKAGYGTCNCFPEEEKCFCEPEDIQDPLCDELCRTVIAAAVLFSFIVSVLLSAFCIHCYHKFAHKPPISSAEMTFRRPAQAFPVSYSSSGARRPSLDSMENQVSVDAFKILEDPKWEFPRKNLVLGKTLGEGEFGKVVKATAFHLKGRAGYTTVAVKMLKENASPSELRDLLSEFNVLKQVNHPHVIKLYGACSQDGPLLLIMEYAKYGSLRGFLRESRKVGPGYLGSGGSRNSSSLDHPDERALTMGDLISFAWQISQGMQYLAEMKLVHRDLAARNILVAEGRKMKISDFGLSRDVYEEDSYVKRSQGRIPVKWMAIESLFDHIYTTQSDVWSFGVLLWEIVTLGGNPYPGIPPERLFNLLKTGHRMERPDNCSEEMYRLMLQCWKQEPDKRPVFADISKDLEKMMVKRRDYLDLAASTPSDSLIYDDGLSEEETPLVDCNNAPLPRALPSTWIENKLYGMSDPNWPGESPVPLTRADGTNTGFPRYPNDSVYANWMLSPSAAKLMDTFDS
Procedure, shortened: as §1

[4] = target: T4, scanMAX Kinase assay panel (Homo sapiens, UniProt O94804); conditions: LOK; 1 uM; read-out: Percent Control (%)
T4 construct: purchased DiscoverX
T4 sequence (O94804 whole entry): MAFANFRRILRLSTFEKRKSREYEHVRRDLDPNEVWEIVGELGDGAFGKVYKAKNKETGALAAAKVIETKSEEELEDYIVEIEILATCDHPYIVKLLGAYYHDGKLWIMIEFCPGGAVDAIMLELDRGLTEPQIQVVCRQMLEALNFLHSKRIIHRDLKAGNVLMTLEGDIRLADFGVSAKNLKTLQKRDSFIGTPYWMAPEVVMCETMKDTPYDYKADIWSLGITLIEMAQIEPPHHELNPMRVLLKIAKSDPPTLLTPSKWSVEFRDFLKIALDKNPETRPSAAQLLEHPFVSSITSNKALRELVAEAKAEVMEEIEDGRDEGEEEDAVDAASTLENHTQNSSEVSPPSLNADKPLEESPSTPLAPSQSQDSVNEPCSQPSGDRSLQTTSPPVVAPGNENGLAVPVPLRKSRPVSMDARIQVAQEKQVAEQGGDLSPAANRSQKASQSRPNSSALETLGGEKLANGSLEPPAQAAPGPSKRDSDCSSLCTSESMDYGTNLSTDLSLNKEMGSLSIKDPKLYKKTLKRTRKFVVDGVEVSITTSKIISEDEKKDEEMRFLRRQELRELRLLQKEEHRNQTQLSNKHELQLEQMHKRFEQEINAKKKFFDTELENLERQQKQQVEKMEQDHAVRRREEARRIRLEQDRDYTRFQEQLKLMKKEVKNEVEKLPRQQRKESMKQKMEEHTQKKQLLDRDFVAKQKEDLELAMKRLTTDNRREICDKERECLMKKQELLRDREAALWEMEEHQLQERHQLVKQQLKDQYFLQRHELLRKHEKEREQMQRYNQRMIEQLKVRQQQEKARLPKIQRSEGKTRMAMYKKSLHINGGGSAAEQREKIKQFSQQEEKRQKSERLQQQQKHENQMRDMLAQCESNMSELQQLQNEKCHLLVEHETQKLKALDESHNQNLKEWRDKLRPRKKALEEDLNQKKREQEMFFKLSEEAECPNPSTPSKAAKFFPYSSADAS
Procedure, shortened: as §1

[5] = target: T5, scanMAX Kinase assay panel (Homo sapiens, UniProt P10721); conditions: 1 uM, read-out: Percent Control (%)
T5 construct: purchased DiscoverX
T5 sequence (P10721 26-976): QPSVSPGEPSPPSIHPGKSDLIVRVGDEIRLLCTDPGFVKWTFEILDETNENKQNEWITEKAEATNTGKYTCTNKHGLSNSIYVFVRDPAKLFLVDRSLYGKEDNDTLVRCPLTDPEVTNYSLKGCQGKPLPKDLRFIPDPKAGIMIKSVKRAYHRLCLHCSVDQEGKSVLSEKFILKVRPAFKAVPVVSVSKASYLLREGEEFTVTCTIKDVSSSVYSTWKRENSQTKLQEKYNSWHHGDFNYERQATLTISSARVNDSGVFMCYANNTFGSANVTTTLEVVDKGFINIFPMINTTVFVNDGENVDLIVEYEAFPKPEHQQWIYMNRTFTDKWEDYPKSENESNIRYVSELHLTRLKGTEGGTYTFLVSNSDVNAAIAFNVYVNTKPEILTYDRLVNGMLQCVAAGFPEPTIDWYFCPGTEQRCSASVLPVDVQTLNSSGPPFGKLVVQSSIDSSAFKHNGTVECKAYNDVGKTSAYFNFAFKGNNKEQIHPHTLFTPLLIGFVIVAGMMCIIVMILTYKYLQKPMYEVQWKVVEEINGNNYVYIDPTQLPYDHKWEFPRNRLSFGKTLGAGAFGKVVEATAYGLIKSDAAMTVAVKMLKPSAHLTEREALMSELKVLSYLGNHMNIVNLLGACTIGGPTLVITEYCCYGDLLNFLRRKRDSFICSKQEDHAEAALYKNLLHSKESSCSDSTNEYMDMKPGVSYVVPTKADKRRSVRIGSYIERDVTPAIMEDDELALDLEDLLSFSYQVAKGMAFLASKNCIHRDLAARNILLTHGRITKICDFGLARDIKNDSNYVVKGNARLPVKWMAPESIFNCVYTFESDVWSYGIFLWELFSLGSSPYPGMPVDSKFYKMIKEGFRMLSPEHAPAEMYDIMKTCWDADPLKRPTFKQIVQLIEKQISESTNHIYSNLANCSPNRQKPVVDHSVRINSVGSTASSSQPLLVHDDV
Procedure, shortened: as §1

[6] = target: T6, scanMAX Kinase assay panel (Homo sapiens, UniProt P29323); conditions: EPHB2; 1 uM; read-out: Percent Control (%)
T6 construct: purchased DiscoverX
T6 sequence (P29323 19-1055): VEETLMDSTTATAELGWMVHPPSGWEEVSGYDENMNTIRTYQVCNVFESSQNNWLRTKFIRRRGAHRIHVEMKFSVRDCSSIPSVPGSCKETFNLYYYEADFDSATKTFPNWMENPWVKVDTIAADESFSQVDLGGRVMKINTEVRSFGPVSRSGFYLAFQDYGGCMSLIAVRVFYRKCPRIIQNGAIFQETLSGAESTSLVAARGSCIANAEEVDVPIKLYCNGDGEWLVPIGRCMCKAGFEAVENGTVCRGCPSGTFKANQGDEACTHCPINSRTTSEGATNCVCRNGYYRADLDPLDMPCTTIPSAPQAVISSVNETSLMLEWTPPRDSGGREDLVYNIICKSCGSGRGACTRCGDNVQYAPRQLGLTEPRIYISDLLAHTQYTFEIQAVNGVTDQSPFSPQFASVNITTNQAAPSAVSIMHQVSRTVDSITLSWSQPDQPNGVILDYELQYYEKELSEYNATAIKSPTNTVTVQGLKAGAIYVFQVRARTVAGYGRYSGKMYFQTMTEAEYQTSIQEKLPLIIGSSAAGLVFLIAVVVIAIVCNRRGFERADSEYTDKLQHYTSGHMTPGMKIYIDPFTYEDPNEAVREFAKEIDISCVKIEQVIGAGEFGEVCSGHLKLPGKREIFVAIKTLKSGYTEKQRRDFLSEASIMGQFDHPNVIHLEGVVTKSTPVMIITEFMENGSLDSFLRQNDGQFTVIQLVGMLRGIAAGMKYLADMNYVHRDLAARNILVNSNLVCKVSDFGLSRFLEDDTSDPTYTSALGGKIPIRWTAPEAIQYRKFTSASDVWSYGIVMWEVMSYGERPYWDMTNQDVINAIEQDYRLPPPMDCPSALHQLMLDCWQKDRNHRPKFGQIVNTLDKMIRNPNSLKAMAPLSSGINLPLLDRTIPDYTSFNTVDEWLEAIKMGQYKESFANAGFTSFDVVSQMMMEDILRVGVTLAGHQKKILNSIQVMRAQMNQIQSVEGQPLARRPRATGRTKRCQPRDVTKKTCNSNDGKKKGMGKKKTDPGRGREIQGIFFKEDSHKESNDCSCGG
Procedure, shortened: as §1

[7] = target: T7, scanMAX Kinase assay panel (Homo sapiens, UniProt Q8IY84); conditions: NIM1; 1 uM; read-out: Percent Control (%)
T7 construct: purchased DiscoverX
T7 sequence (Q8IY84 whole entry): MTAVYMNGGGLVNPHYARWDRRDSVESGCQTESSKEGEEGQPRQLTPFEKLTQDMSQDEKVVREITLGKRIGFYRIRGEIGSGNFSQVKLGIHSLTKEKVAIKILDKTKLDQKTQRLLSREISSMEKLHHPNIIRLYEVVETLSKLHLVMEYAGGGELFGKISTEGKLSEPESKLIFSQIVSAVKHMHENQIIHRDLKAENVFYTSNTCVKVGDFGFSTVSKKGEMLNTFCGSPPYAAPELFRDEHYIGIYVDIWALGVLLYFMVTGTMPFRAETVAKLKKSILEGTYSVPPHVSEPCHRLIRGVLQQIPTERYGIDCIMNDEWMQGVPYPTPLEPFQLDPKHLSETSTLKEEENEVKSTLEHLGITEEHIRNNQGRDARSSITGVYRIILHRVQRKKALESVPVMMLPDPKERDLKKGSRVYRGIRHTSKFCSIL
Procedure, shortened: as §1

[8] = target: T8, scanMAX Kinase assay panel (Homo sapiens, UniProt P68400); conditions: CSNK2A1; 1 uM; read-out: Percent Control (%)
T8 construct: purchased DiscoverX
T8 sequence (P68400 whole entry): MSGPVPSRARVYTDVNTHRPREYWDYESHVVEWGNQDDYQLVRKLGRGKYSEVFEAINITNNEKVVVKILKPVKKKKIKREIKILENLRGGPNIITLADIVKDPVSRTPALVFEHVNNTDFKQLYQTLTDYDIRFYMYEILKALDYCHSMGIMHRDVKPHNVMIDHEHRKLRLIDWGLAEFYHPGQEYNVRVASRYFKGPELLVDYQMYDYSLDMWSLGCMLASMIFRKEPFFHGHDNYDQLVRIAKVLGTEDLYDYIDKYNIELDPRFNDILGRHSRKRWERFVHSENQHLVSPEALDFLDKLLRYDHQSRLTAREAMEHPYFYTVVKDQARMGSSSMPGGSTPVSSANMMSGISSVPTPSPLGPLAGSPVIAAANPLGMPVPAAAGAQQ
Procedure, shortened: as §1

SMILES | remaining binding at 1 µM [1] | remaining binding at 1 µM [2] | remaining binding at 1 µM [3] | remaining binding at 1 µM [4] | remaining binding at 1 µM ([5]; KIT-autoinhibited) | remaining binding at 1 µM ([5]; KIT) | remaining binding at 1 µM [6] | remaining binding at 1 µM [7] | remaining binding at 1 µM [8]
Cc1ccc(NC(=O)C2(C(=O)Nc3ccc(F)cc3)CC2)cc1C#Cc1cnc2c(Nc3cnn(C(C)C)c3)cccn12 [Example 78] | 82% | 98% | 100% | 0% | 93% | 0% | 98% | 100% | 100%
Cc1cn(-c2cc(NC(=O)c3ccc(C)c(C#Cc4cnc5c(Nc6cnn(C)c6)cccn45)c3)cc(C(F)(F)F)c2)cn1 [Example 12, 4-methyl-N-(3-(4-methyl-1H-imidazol-1-yl)-5-(trifluoromethyl)phenyl)-3-((8-((1-methyl-1H-pyrazol-4-yl)amino)imidazo[1,2-a]pyridin-3-yl)ethynyl)benzamide] | 96% | 88% | 1% | 0% | 98% | 1% | 27% | 100% | 100%
Cc1ccc(C(=O)Nc2ccc(CN3CCN(C)CC3)c(C(F)(F)F)c2)cc1C#Cc1cnc2c(Nc3cnn(C)c3)cccn12 [Example 1, 4-methyl-3-((8-((1-methyl-1H-pyrazol-4-yl)amino)imidazo[1,2-a]pyridin-3-yl)ethynyl)-N-(4-((4-methylpiperazin-1-yl)methyl)-3-(trifluoromethyl)phenyl)benzamide] | 40% | 80% | 0% | 0% | 77% | 0% | 0% | 92% | 83%
